Assay results as given in US20250282757A1, “ARYL ETHER-SUBSTITUTED HETEROCYCLIC COMPOUNDS AS GLP1R AGONISTS” (MINDRANK AI LTD., priority 2021, published 2025).

Target: GLP-1R (Homo sapiens, UniProt P43220)
Experiment: Agonist activity on GLP-1R, HTRF cAMP detection in stably transfected GLP-1R/HEK293 cells
Format: cell-based
Settings: for EC50: 30 min incubation; for Max activity: relative to top concentration of reference GLP-1(7-37)
Protocol: Detection of Agonist Activity of the Test Compounds on GLP-1R
• 1) The test compound was dissolved in DMSO and diluted 4-fold with Bravo for a total of 10 concentration gradients (the starting concentration was 1 mM). […] HBSS (10 mL) pre-warmed at 37° C. was added, mixed gently, and centrifuged at 1000 rpm for 5 minutes. The supernatant was discarded and another 10 mL of […] was added and mixed gently. […] The plate was shaken to mix at 2000 rpm for 60 seconds. • 7) The cells in the 384-well plate were incubated in CO2 cell incubator at 37° C. for 30 min. • 8) 10 μL of HTRF cAMP detection solution was added to the 384-well plate, stick with sealing film, and incubated at room temperature for 1 hour. • 9) After 1 hour of incubation, the sealing film was removed. The plate was put into the EnVision microplate reader to read the values of OD665 nm and OD615 nm.

Chain of GLP-1R (P43220 24-463): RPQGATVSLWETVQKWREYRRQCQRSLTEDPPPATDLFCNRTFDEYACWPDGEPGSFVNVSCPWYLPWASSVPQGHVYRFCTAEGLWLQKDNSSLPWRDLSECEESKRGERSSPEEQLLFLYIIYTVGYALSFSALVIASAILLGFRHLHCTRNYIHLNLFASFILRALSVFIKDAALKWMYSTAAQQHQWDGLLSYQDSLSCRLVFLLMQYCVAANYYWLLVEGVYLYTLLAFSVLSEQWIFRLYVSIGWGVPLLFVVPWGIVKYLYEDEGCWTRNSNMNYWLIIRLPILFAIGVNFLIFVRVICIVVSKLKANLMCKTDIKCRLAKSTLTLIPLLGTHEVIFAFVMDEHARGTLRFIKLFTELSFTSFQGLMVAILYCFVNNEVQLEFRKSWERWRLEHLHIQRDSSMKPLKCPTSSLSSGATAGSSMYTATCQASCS

SMILES	EC50 [nM]	Max activity [%]
CCn1cncc1Cn1c(CN2CCC(Oc3cccc(COc4ccc(C#N)cc4F)n3)CC2)nc2ccc(C(=O)O)cc21 [Compound 1, 2-((4-((6-((4-cyano-2-fluorophenoxy)methyl)pyridin-2-yl)oxy)piperidin-1-yl)methyl)-1-((1-ethyl-1H-imidazol-5-yl)methyl)-1H-benzo[d]imidazole-6-carboxylic acid]	0.088	116.8
CCn1cncc1Cn1c(CN2CCC(Oc3cccc(COc4ccc(C#N)cc4F)n3)CC2)nc2c(F)cc(C(=O)O)cc21 [Compound 2, 2-((4-((6-((4-cyano-2-fluorophenoxy)methyl)pyridin-2-yl)oxy)piperidin-1-yl)methyl)-1-((1-ethyl-1H-imidazol-5-yl)methyl)-4-fluoro-1H-benzo[d]imidazole-6-carboxylic acid]	0.0529	98.6
CCn1cncc1Cn1c(CN2CCC(Oc3ccc(F)c(COc4ccc(C#N)cc4F)n3)CC2)nc2ccc(C(=O)O)cc21 [Compound 3, 2-((4-((6-((4-cyano-2-fluorophenoxy)methyl)-5-fluoropyridin-2-yl)oxy)piperidin-1-yl)methyl)-1-((1-ethyl-1H-imidazol-5-yl)methyl)-1H benzo[d]imidazole-6-carboxylic acid]	0.317	128.3
CCn1cncc1Cn1c(CN2CCC(Oc3cccc(COc4ccc(C#N)cc4F)n3)CC2)nc2ccc(C(=O)O)nc21 [Compound 6, 2-((4-((6-((4-cyano-2-fluorophenoxy)methyl)pyridin-2-yl)oxy)piperidin-1-yl)methyl)-3-((1-ethyl-1H-imidazol-5-yl)methyl)-3H-imidazo[4,5-b]pyridine-5-carboxylic acid]	0.133	114.8
CCn1cncc1Cn1c(CN2CCC(Oc3cccc(COc4ccc(Cl)cc4F)c3)CC2)nc2ccc(C(=O)O)cc21 [Compound 7, 2-((4-(3-((4-chloro-2-fluorophenoxy)methyl)phenoxy)piperidin-1-yl)methyl)-1-((1-ethyl-1H-imidazol-5-yl)methyl)-1H-benzo[d]imidazole-6-carboxylic acid]	0.145	91.3
CCn1cncc1Cn1c(CN2CCC(Oc3cccc(COc4ccc(C#N)cc4F)c3)CC2)nc2ccc(C(=O)O)cc21 [Compound 13, 2-((4-(3-((4-cyano-2-fluorophenoxy)methyl)phenoxy)piperidin-1-yl)methyl)-1-((1-ethyl-1H-imidazol-5-yl)methyl)-1H-benzo[d]imidazole-6-carboxylic acid]	0.114	99.4
CCn1cncc1Cn1c(CN2CCC(Oc3cccc(COc4ccc(Cl)cc4F)n3)CC2)nc2ccc(C(=O)O)cc21 [Compound 43, 2-((4-((6-((4-chloro-2-fluorophenoxy)methyl)pyridin-2-yl)oxy)piperidin-1-yl)methyl)-1-((1-ethyl-1H-imidazol-5-yl)methyl)-1H-benzo[d]imidazole-6-carboxylic acid]	0.11	109.7
N#Cc1ccc(OCc2cccc(OC3CCN(Cc4nc5ccc(C(=O)O)nc5n4C[C@@H]4CCO4)CC3)n2)c(F)c1 [Compound 60, (S)-2-((4-((6-((4-cyano-2-fluorophenoxy)methyl)pyridin-2-yl)oxy)piperidin-1-yl)methyl)-3-(oxetan-2-ylmethyl)-3H-imidazo[4,5-b]pyridine-5-carboxylic acid]	0.455	112.0
N#Cc1ccc(OCc2cccc(OC3CCN(Cc4nc5ccc(C(=O)O)cc5n4C[C@@H]4CCO4)CC3)c2)c(F)c1 [Compound 67, (S)-2-((4-(3-((4-cyano-2-fluorophenoxy)methyl)phenoxy)piperidin-1-yl)methyl)-1-(oxetan-2-ylmethyl)-1H-benzo[d]imidazole-6-carboxylic acid]	1.09	106.4
N#CCC1(Cn2c(CN3CCC(Oc4cccc(COc5ccc(C#N)cc5F)n4)CC3)nc3ccc(C(=O)O)cc32)CC1 [Compound 133, 2-((4-((6-((4-cyano-2-fluorophenoxy)methyl)pyridin-2-yl)oxy)piperidin-1-yl)methyl)-1-((1-(cyanomethyl)cyclopropyl)methyl)-1H-benzo[d]imidazole-6-carboxylic acid]	0.264	126.6
N#CCC1(Cn2c(CN3CCC(Oc4cccc(COc5ccc(C#N)cc5F)n4)CC3)nc3c(F)cc(C(=O)O)cc32)CC1 [Compound 134, 2-((4-((6-((4-cyano-2-fluorophenoxy)methyl)pyridin-2-yl)oxy)piperidin-1-yl)methyl)-1-((1-(cyanomethyl)cyclopropyl)methyl)-4-fluoro-1H-benzimidazole-6-carboxylic acid]	0.133	117.3
N#CCC1(Cn2c(CN3CCC(Oc4ccc(F)c(COc5ccc(C#N)cc5F)n4)CC3)nc3ccc(C(=O)O)cc32)CC1 [Compound 135, 2-((4-((6-((4-cyano-2-fluorophenoxy)methyl)-5-fluoropyridin-2-yl)oxy)piperidin-1-yl)methyl)-1-((1-(cyanomethyl)cyclopropyl)methyl)-1H-benzo[d]imidazole-6-carboxylic acid]	0.244	109.6
N#CCC1(Cn2c(CN3CCC(Oc4cccc(COc5ccc(C#N)cc5F)n4)CC3)nc3ccc(C(=O)O)nc32)CC1 [Compound 138, 2-((4-((6-((4-cyano-2-fluorophenoxy)methyl)pyridin-2-yl)oxy)piperidin-1-yl)methyl)-3-((1-(cyanomethyl)cyclopropyl)methyl)-3H-imidazo[4,5-b]pyridine-5-carboxylic acid]	0.669	125.0
N#Cc1ccc(OCc2cccc(COC3CCN(Cc4nc5ccc(C(=O)O)cc5n4C[C@@H]4CCO4)CC3)n2)c(F)c1 [Compound C1, (S)-2-((4-((6-((4-cyano-2-fluorophenoxy)methyl)pyridin-2-yl)methoxy)piperidin-1-yl)methyl)-1-(oxetan-2-ylmethyl)-1H-benzo[d]imidazole-6-carboxylic acid]	1190	76.6
CCn1cncc1Cn1c(CN2CCC(Oc3cccc(OCc4ccc(C#N)cc4F)n3)CC2)nc2ccc(/C=C/C(=O)O)cc21 [Compound C2, (E)-3-(2-((4-((6-((4-cyano-2-fluorobenzyl)oxy)pyridin-2-yl)oxy)piperidin-1-yl)methyl)-1-((1-ethyl-1H-imidazol-5-yl)methyl)-1H-benzo[d]imidazol-6-yl)acrylic acid]	0.614	123.1
CCn1cncc1Cn1c(CN2CCC(Oc3cccc(COc4ccc(Br)cc4F)n3)CC2)nc2ccc(C(=O)O)cc21 [Compound C3, 2-((4-((6-((4-bromo-2-fluorophenoxy)methyl)pyridin-2-yl)oxy)piperidin-1-yl)methyl)-1-((1-ethyl-1H-imidazol-5-yl)methyl)-1H-benzo[d]imidazole-6-carboxylic acid]	0.278	122.3
O=C(O)c1ccc2nc(CN3CCC(Oc4cccc(COc5ccc(Br)cc5F)n4)CC3)n(C[C@@H]3CCO3)c2c1 [Compound C4, (S)-2-((4-((6-((4-bromo-2-fluorophenoxy)methyl)pyridin-2-yl)oxy)piperidin-1-yl)methyl)-1-(oxetan-2-ylmethyl)-1H-benzo[d]imidazole-6-carboxylic acid]	0.56	147.9
CC1(Cn2c(CN3CCC(Oc4cccc(COc5ccc(C#N)cc5F)n4)CC3)nc3ccc(C(=O)O)cc32)COC1 [Compound C5, 2-((4-((6-((4-cyano-2-fluorophenoxy)methyl)pyridin-2-yl)oxy)piperidin-1-yl)methyl)-1-((3-methyloxetan-3-yl)methyl)-1H-benzo[d]imidazole-6-carboxylic acid]	2.41	112.6
Cc1ncc(Cn2c(CN3CCC(Oc4cccc(COc5ccc(C#N)cc5F)n4)CC3)nc3ccc(C(=O)O)cc32)n1C [Compound C6, 2-((4-((6-((4-cyano-2-fluorophenoxy)methyl)pyridin-2-yl)oxy)piperidin-1-yl)methyl)-1-((1,2-dimethyl-1H-imidazol-5-yl)methyl)-1H-benzo[d]imidazole-6-carboxylic acid]	13.8	99.8
N#CCC1(Cn2c(CN3CCC(Oc4cccc(CSc5ccc(Cl)cc5F)n4)CC3)nc3ccc(C(=O)O)cc32)CC1 [Compound C7, 2-((4-((6-((4-chloro-2-fluorophenylthio)methyl)pyridin-2-yl)oxy)piperidin-1-yl)methyl)-1-((1-(cyanomethyl)cyclopropyl)methyl)-1H-benzo[d]imidazole-6-carboxylic acid]	23.5	90.1
O=C(O)c1ccc2nc(CN3CCC(Oc4cccc(CSc5ccc(Cl)cc5F)n4)CC3)n(C[C@@H]3CCO3)c2c1 [Compound C8]	25.6	117.4
CCn1cncc1Cn1c(CN2CCC(Oc3cccc(CSc4ccc(Cl)cc4F)n3)CC2)nc2ccc(C(=O)O)cc21 [Compound C9]	3.74	97.2
N#Cc1ccc(SCc2cccc(OC3CCN(Cc4nc5ccc(C(=O)O)cc5n4C[C@@H]4CCO4)CC3)n2)c(F)c1 [Compound C10, (S)-2-((4-((6-((4-cyano-2-fluorophenylthio)methyl)pyridin-2-yl)oxy)piperidin-1-yl)methyl)-1-(oxetan-2-ylmethyl)-1H-benzo[d]imidazole-6-carboxylic acid]	4.16	110.2
